Results as given in ChEMBL document CHEMBL1132582, “Bicyclic tripeptide mimetics with reverse turn inducing properties” (J Med Chem, 1999).

Columns and labels:
[1] = molecular target: T1, Angiotensin II receptor (AT-1) type-1 (Rattus norvegicus, UniProt P29089+P25095); assay: Compound was evaluated in a binding assay using Chinese hamster ovary (CHO) cells stably expressing the rat Angiotensin II receptor, type 1; format: cell-based
T1 sequence (P29089 whole entry): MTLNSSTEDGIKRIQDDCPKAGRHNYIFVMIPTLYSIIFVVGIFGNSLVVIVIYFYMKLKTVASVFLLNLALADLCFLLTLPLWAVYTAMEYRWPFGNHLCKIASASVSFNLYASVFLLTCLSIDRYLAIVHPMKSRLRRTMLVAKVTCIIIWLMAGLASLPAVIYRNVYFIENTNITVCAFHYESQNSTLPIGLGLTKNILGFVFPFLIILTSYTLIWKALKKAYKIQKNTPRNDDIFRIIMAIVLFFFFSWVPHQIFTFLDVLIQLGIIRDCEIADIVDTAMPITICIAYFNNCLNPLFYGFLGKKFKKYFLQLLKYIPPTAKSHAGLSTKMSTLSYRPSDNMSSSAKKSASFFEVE
T1 sequence (P25095 whole entry): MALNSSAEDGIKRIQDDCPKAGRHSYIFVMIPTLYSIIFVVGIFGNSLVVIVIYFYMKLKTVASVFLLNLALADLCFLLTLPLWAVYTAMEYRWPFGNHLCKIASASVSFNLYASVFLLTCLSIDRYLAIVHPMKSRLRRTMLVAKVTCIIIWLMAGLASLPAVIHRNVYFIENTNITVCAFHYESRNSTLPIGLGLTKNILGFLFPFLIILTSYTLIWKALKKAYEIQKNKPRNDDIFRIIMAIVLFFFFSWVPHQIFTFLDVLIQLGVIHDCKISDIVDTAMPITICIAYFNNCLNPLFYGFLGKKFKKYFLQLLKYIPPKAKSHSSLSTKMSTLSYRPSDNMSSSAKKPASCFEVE

[2] = molecular target: T1, Angiotensin II receptor (AT-1) type-1; assay: Compound was evaluated in a radioligand binding assay to displace [125I]-Ang II from Angiotensin II receptor, type 1 in rat liver membranes; format: cell membranes, Membrane

NC(N)=NCCC[C@H](NC(=O)[C@@H](N)CC(=O)O)C(=O)N[C@H]1C[C@H]2SC[C@@H](C(=O)N[C@@H](Cc3c[nH]cn3)C(=O)N3CCC[C@H]3C(=O)N[C@@H](Cc3ccccc3)C(=O)O)NC(=O)[C@H](Cc3ccc(O)cc3)N2C1=O
IC50 [1]: >= 10 uM | IC50 [2]: >= 10 uM
